In patent US11497694B2, “Oral care compositions” (Colgate-Palmolive Company, priority 2017, dated 2022):

Test system: bacteria
Experiment: Stabilizing effect of lysine on CPC-STPP / CPC-DV interaction (bacterial viability)
Assay type: cell-based
Conditions: PBS 100
Description: Compositions were created to test the stabilizing effect that lysine had on the CPC and DV polymer. Mouthwashes were created according to the method of Example 1. Each sample was created with CPC and either STPP or DV. The compositions also contained varied amounts of lysine. The samples created are summarized below.

In the case of `CCO` [Ethanol], the “Bacterial Viability at pH 4.6 (%)” value (CPC-DV mouthwashes with varied lysine, pH 4.6) is reported as 11%, the “Bacterial Viability at pH 6.0 (%)” value (CPC-DV mouthwashes with varied lysine, pH 6.0) is reported as 19% and the “Bacterial Viability (%)” value (CPC-STPP mouthwashes with varied lysine) is reported as 23%.
